Assay results taken from ChEMBL document CHEMBL1150859, “Gelliusterols A--D, new acetylenic sterols from a sponge, Gellius species” (J Nat Prod, 2001).
Values after ≈ are worked out from the molar mass of the structure shown.

Assays:
Format in all cases: functional, cell-based
A549 = experiment: Cytotoxicity against human A549 cells
SK-MEL-28 = experiment: Cytotoxicity against human SK-MEL-28 cells
P388 = experiment: Cytotoxicity against mouse P388 cells
HT-29 = experiment: Cytotoxicity against human HT-29 cells
DU-145 = experiment: Cytotoxicity against human DU145 cells

Row | Structure (SMILES) | IC50 (A549) | IC50 (SK-MEL-28) | IC50 (P388) | IC50 (HT-29) | IC50 (DU-145)
1 | CC#CC[C@@H](C)[C@H]1CC[C@H]2[C@@H]3C(=O)C=C4C[C@@H](O)CC[C@]4(C)[C@H]3CC[C@]12C [GELLIUSTEROL B] | > 1 µg/mL | > 1 µg/mL | > 1 µg/mL | > 1 µg/mL | > 1 µg/mL
2 | CC#CC[C@@H](C)[C@H]1CC[C@H]2[C@@H]3[C@H](O)C=C4C[C@@H](O)CC[C@]4(C)[C@H]3CC[C@]12C [GELLIUSTEROL A] | > 1 µg/mL | > 1 µg/mL | > 1 µg/mL | > 1 µg/mL | > 1 µg/mL
3 | CC(C)C#CC[C@@H](C)[C@H]1CC[C@H]2[C@@H]3C(=O)C=C4C[C@@H](O)CC[C@]4(C)[C@H]3CC[C@]12C [GELLIUSTEROL C] | > 1 µg/mL | > 1 µg/mL | > 1 µg/mL | 0.5 µg/mL (≈ 1.26 µM) | > 1 µg/mL
